Drawing on patent US8088777B2, “Urea derivative” (Shionogi & Co., Ltd., priority 2006, dated 2012), this text covers IC50 for 3 molecules.

The assay deals with T1, human NPY Y5 receptor (Homo sapiens, UniProt Q15761).
T1 construct: expressed in transfected cells; membranes used
T1 sequence (Q15761 1-445): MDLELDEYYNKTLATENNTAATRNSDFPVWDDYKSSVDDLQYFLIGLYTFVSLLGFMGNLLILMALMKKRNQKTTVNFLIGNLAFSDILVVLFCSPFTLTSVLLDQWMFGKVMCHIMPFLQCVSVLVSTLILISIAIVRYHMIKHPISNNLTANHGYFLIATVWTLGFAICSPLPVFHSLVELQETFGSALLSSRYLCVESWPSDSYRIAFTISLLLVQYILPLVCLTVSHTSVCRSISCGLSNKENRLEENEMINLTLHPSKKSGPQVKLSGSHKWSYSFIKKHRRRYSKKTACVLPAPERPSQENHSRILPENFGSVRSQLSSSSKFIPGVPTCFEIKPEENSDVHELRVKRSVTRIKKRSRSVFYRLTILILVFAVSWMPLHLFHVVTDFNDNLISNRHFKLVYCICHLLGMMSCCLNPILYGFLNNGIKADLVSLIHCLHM
The assay is described as follows: Affinity for NPY Y5 receptor: inhibition of [125I] peptide YY binding to membranes of CHO cells expressing NPY Y5 receptor. The conditions noted are these: [125I] peptide YY 60 pM, 25° C., 2 hours, read-out: 50% inhibitory concentration of the test compound against the specific peptide YY binding (IC50 value). The source says: cDNA sequence encoding a human NPY Y5 receptor (WO96/16542) was cloned in a vector pME18S (Takebe et al. Mol. Cell. Biol. 8, 8957). The obtained expression vector was transfected into CHO cells as a host by using Lipofect AMINE reagent (Trademark, Gibco BRL Co., Ltd.) according to the instruction […] manual. The cells that stably express NPY Y5 receptor were obtained.
The membranes prepared from the CHO cells expressing NPY Y5 receptor, the compound of the present invention and 30,000 cpm [^125I] peptide YY (60 pM of final concentration: Amersham) were incubated in the assay buffer (20 mM HEPES-Hanks buffer containing 0.1% bovine serum albumin, pH 7.4) at 25° C. for 2 hours, and then the membrane was collected by filtering the mixture through a glassfilter (GF/C) presoaked with 1% polyethyleneimine. After washing with 50 mM Tris-HCl buffer (pH 7.4), radioactivity retained on the filters was quantified with a gamma counter. Nonspecific binding was defined as the amount of radioactivity bound to the membranes after incubation in the presence of 200 nM of peptide YY. The 50% inhibitory concentration of the test compound against the specific peptide YY binding (IC50 value) was calculated (Inui, A. et al. Endocrinology 131, 2090-2096 (1992)).
Regarding `CC(C)n1c(=O)oc2cc(NC(=O)N[C@H]3CC[C@H](NS(=O)(=O)C(C)(C)C)CC3)ccc21` [Example II-12], the IC50 came to 0.55 nM.

`CCS(=O)(=O)N(C)C1CCC(N(C)C(=O)Nc2ccc3c(c2)oc(=O)n3C(C)C)CC1` (stereo not drawn) [Example II-2]: the IC50 was 1.85 nM. Under `CC(C)n1c(=O)oc2cc(NC(=O)N[C@H]3CC[C@H](NS(=O)(=O)C(C)C)CC3)ccc21` [Example II-14] stands 0.32 nM.
